Reference: patent US20050143366A1, “Compounds for diagnosis, treatment and prevention of bone injury and metabolic disorders” (priority 2003, published 2005)

Assays:
[1] = Binding to microcrystalline hydroxyapatite from dilute aqueous solution; conditions: for % Adsorbed: 10^-5 M in 99:1 H2O:DMSO, 0.5% (w/v) slurried HA in Tris, mixed about 4 minutes, UV of supernatant; for Binding Index: Tetracycline positive control = 100
Text: The ability of the compounds of the present invention to act as bone targeted pharmaceuticals is estimated initially by determination of the ability of the compounds to be bound to microcrystalline hydroxyapatite [Ca10(PO4)6.OH2] (HA) from a dilute aqueous solution. Solutions of test compounds are constructed in about 99: 1, v/v, H2O:dimethylsulfoxide (DMSO) at 10^−5M. These solutions are taken for determination of electronic photometric absorption spectra scanning from λ=500-190 nm. Absorption maxima (λmax) and extinction coefficients (ε) are determined using the Beer-Lambert law. […] These solutions and slurries are mixed for about 4 minutes, then centrifuged for about 3 minutes at 10,000×g. Supernatants are taken for UV absorption spectrometry at previously determined λmax. Concentrations of test compound are determined and the extent of binding is calculated. Tetracycline is included as a positive control compound.

[2] = system: bone loss associated with OVX; test: Whole femoral density in ovariectomized rats, ED50 for preventing bone loss; assay type: in vivo, Sprague-Dawley female rats; conditions: dosing 3 times a week for about 6 weeks, dose preventing about 50% of the bone loss, by interpolation; for ED50: Rattus norvegicus, 1008 h, read-out: ED50 (nmol/kg) for preservation of Femoral Mass
Experimental: In vivo experiments—Bilaterally ovariectomized and sham operated Sprague-Dawley female rats (150-170 g) from Harlan Laboratories (Indianapolis, Ind.) are housed on about a 12 hour dark/light cycle at 22° C. with ad libitum access to tap water and food (Purina Laboratory Rodent Diet 5001: 0.95% calcium, 0.67% total phosphorous, and 0.40% non-phytate phosphorous). The rats are randomly assigned into groups of about 6 to 10 animals. Compound administration begins about 4 days after surgery. […] All compounds are dissolved in 5% DMSO in corn oil. After about 6 weeks of dosing, animals are euthanized by carbon dioxide asphyxiation. Blood is collected by cardiac puncture, and uteri and both left and right femurs are removed. Fresh weights of uteri are obtained. All animal procedures and care are approved by the internal animal care and use committee to ensure compliance with NIH guidelines. Determination of whole femoral density.—Following removal, femurs are rubbed clean of soft tissue using gauze, and femur fresh weights are measured. Femurs are then submerged in distilled water under a vacuum for about 1 hour to completely hydrate the femurs. Densities are determined by Archimedes' Principle using the following formula: density=[mass of hydrated femur/(mass of hydrated femur-mass of hydrated femur submerged in water)]*density of water at ambient temperature. The dose that is effective in preventing about 50% of the bone loss associated with OVX (ED50) is determined by interpolation.

[3] = system: bone strength of femora from OVX rats; test: Blunt indentation force to failure test of the distal femoral metaphysis; assay type: in vivo; conditions: FIG. 1
Experimental: FIG. 1 is a bar graph showing the distal femur strength of animals including those treated with an exemplary compound of the present invention.
Bone density is not necessarily the equivalent to bone strength, so an additional test (blunt indentation force of the distal metaphysis) is performed as well. With reference to FIG. 1, as a measure of bone mechanical competence, a blunt indentation force to failure test is performed on femora from about 6-week-old OVX rats. Sham operated animals are simultaneously tested as a control.

Compound	% Adsorbed [1] [%]	Binding Index [1]	ED50 [2] [nmol/kg]	bone strength (blunt indentation force to failure, distal femur) [3]	ED50 (nmol/kg) for preservation of Femoral Mass [2] [nmol/kg]	effect on bone strength (blunt indentation force to failure) ([3]; at a normal dose) [%]
NC(=O)c1c(O)ccc(N)c1O [3-amino-2,6-dihydroxybenzamide, reference compound]	25.4	49	–	–	–	–
C[C@]12CC[C@@H]3c4ccc(O)cc4CC[C@H]3[C@@H]1CC[C@@H]2O [17-β-estradiol, reference compound]	−4.0	−8	10	completely protect against osteopenia	–	–
CC12CCC3c4ccc(O)cc4CCC3C1CCC2OC(=O)CCC(=O)Nc1ccc(O)c(C(N)=O)c1O (centres unmarked) [BTE2-A1]	54	105	8	–	–	–
COc1ccc(NC(=O)CCC(=O)OC2CCC3C4CCc5cc(O)ccc5C4CCC23C)c(O)c1C(N)=O (centres unmarked) [BTE2-A2]	91.7	178	19	–	–	–
COc1ccc(NC(=O)CCCCC(=O)OC2CCC3C4CCc5cc(O)ccc5C4CCC23C)c(O)c1C(N)=O (centres unmarked) [BTE2-B2]	99.1	192	9	–	–	–
Raloxifene [reference compound]	–	–	–	–	210	~30
